Measurements taken from ChEMBL document CHEMBL1201861, “Genomics of Drug Sensitity in Cancer screening data, Wellcome Trust Sanger Institute”.
Values joined by “and” are separate entries in the source; they are usually repeats but may differ in a detail not shown here. Identical values can stand only once. Where a SMILES comes first, the peptide text is derived from it. The star is where a group is joined. Cbz = O=C(OCc1ccccc1)*

Experiments:
Assay in all cases: cells
NCI-H1355 = assay type: functional, cell-based, Homo sapiens;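 further: growth inhibition of human NCI-H1355 cells, read out by a cell viability assay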
Description: SANGER: Inhibition of human NCI-H1355 cell growth in a cell viability assay.

JVM-3 = assay type: functional, cell-based, Homo sapiens;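 further: growth inhibition of human JVM-3 cells, read out with a cell viability assay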
Description: SANGER: Inhibition of human JVM-3 cell growth in a cell viability assay.

KARPAS-299 = assay type: functional, cell-based, Homo sapiens
Description: SANGER: Inhibition of human KARPAS-299 cell growth in a cell viability assay.

GCIY = assay type: functional, cell-based, Homo sapiens;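 further: growth inhibition of the human GCIY cell line, read out by a cell viability assay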
Description: SANGER: Inhibition of human GCIY cell growth in a cell viability assay.

HDLM-2 = assay type: functional, cell-based, Homo sapiens;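 further: cell viability assay measuring suppression of HDLM-2 proliferation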
Description: SANGER: Inhibition of human HDLM-2 cell growth in a cell viability assay.

LB2518-MEL = assay type: functional, cell-based; settings: Homo sapiens;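 further: growth inhibition of human LB2518-MEL cells, measured with a cell viability assay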
TE-12 = assay type: functional, cell-based, Homo sapiens;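 further: growth inhibition of TE-12 cells, read out by a cell viability assay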
Description: SANGER: Inhibition of human TE-12 cell growth in a cell viability assay.

MS-1 = assay type: functional, cell-based, Homo sapiens;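 further: growth inhibition of MS-1 cells, read out by cell viability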
Description: SANGER: Inhibition of human MS-1 cell growth in a cell viability assay.

LC-2-ad = assay type: functional, cell-based, Homo sapiens;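 further: growth inhibition of human LC-2-ad cells, read out with a cell viability assay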
Description: SANGER: Inhibition of human LC-2-ad cell growth in a cell viability assay.

BB65-RCC = assay type: functional, cell-based, Homo sapiens;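 further: growth inhibition of the cell line, measured with a cell viability assay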
Description: SANGER: Inhibition of human BB65-RCC cell growth in a cell viability assay.

NCI-H1395 = assay type: functional, cell-based, Homo sapiens;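 further: cell viability assay read-out quantifying reduced proliferation of human NCI-H1395 cells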
Description: SANGER: Inhibition of human NCI-H1395 cell growth in a cell viability assay.

A3-KAW = assay type: functional, cell-based, Homo sapiens;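 further: growth inhibition of human A3-KAW cells, read out with a cell viability assay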
KNS-81-FD = assay type: functional, cell-based, Homo sapiens;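 further: growth inhibition of KNS-81-FD cells, read out with a cell viability assay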
Description: SANGER: Inhibition of human KNS-81-FD cell growth in a cell viability assay.

GB-1 = assay type: functional, cell-based, Homo sapiens;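 further: growth of GB-1 cells judged by a viability assay, IC50 marks the concentration inhibiting growth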
Description: SANGER: Inhibition of human GB-1 cell growth in a cell viability assay.

NCI-H209 = assay type: functional, cell-based, Homo sapiens;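 further: growth inhibition of human NCI-H209 cells, measured by a cell viability assay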
Description: SANGER: Inhibition of human NCI-H209 cell growth in a cell viability assay.

LU-134-A = assay type: functional, cell-based, Homo sapiens
Description: SANGER: Inhibition of human LU-134-A cell growth in a cell viability assay.

SW 954 = assay type: functional, cell-based, Homo sapiens;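 further: growth inhibition of SW954 human cancer cells, read out as cell viability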
Description: SANGER: Inhibition of human SW954 cell growth in a cell viability assay.

Calu-6 = assay type: functional, cell-based, Homo sapiens;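 further: growth of human Calu-6 cells, read out by a cell viability assay, IC50 marking inhibition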
Description: SANGER: Inhibition of human Calu-6 cell growth in a cell viability assay.

BB30-HNC = assay type: functional, cell-based, Homo sapiens;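 further: growth inhibition of the cultured cell line, read out by a cell viability assay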
Description: SANGER: Inhibition of human BB30-HNC cell growth in a cell viability assay.

NCI-H1299 = assay type: functional, cell-based; settings: Homo sapiens;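 further: growth inhibition of human NCI-H1299 cells, read out by a cell viability assay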
Description: SANGER: Inhibition of human NCI-H1299 cell growth in a cell viability assay.

8-MG-BA = assay type: functional, cell-based, Homo sapiens;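 further: growth inhibition of 8-MG-BA cells, read out with a cell viability assay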
Description: SANGER: Inhibition of human 8-MG-BA cell growth in a cell viability assay.

SNB-75 = assay type: functional, cell-based, Homo sapiens;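 further: cell viability assay measuring growth inhibition of human SNB-75 cells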
Description: SANGER: Inhibition of human SNB75 cell growth in a cell viability assay.

NCI-H747 = assay type: functional, cell-based, Homo sapiens;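 further: growth inhibition of human NCI-H747 cells, read out by a cell viability assay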
Description: SANGER: Inhibition of human NCI-H747 cell growth in a cell viability assay.

KY821 = assay type: functional, cell-based, Homo sapiens;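 further: growth inhibition of human KY821 cells, read out by a cell viability assay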
Description: SANGER: Inhibition of human KY821 cell growth in a cell viability assay.

LB1047-RCC = assay type: functional, cell-based, Homo sapiens;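 further: inhibition of cell growth, determined with a cell viability assay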
Description: SANGER: Inhibition of human LB1047-RCC cell growth in a cell viability assay.

OCI-AML2 = assay type: functional, cell-based, Homo sapiens;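 further: growth inhibition of OCI-AML2 cells, read out with a cell viability assay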
SK-MEL-2 = assay type: functional, cell-based, Homo sapiens;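 further: growth inhibition of human SK-MEL-2 cells measured with a cell viability assay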
Description: SANGER: Inhibition of human SK-MEL-2 cell growth in a cell viability assay.

HT = assay type: functional, cell-based, Homo sapiens
TE-10 = assay type: functional, cell-based, Homo sapiens;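 further: growth inhibition of TE-10 cells, measured by a cell viability assay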
Description: SANGER: Inhibition of human TE-10 cell growth in a cell viability assay.

no-11 = assay type: functional, cell-based, Homo sapiens;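 further: growth inhibition of human NO-11 cells, read out with a cell viability assay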
Description: SANGER: Inhibition of human no-11 cell growth in a cell viability assay.

EW-11 = assay type: functional, cell-based, Homo sapiens;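 further: growth inhibition of human EW-11 cells, measured with a cell viability assay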
Description: SANGER: Inhibition of human EW-11 cell growth in a cell viability assay.

A4-Fuk = assay type: functional, cell-based, Homo sapiens;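 further: growth inhibition of A4-Fuk cells, read out by a cell viability assay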
Description: SANGER: Inhibition of human A4-Fuk cell growth in a cell viability assay.

GT3TKB = assay type: functional, cell-based, Homo sapiens;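 further: growth inhibition of the cell line, read out with a cell viability assay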
Description: SANGER: Inhibition of human GT3TKB cell growth in a cell viability assay.

OS-RC-2 = assay type: functional, cell-based, Homo sapiens;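 further: growth inhibition of human OS-RC-2 cells, measured by a cell viability assay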
Description: SANGER: Inhibition of human OS-RC-2 cell growth in a cell viability assay.

MV4-11 = assay type: functional, cell-based, Homo sapiens, MV-4-11;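 further: cell viability readout measuring growth inhibition of human MV-4-11 cells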
Description: SANGER: Inhibition of human MV-4-11 cell growth in a cell viability assay.

COLO-668 = assay type: functional, cell-based, Homo sapiens
Description: SANGER: Inhibition of human COLO-668 cell growth in a cell viability assay.

NB6 = assay type: functional, cell-based, Homo sapiens;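 further: growth inhibition of NB6 cells, read out by a cell viability assay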
Description: SANGER: Inhibition of human NB6 cell growth in a cell viability assay.

MHH-NB-11 = assay type: functional, cell-based, Homo sapiens;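 further: growth inhibition of human MHH-NB-11 cells, read out by a cell viability assay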
Description: SANGER: Inhibition of human MHH-NB-11 cell growth in a cell viability assay.

MEG-01 = assay type: functional, cell-based, Homo sapiens;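 further: growth inhibition of MEG-01 cells, read out by a cell viability assay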
Description: SANGER: Inhibition of human MEG-01 cell growth in a cell viability assay.

KINGS-1 = assay type: functional, cell-based, Homo sapiens;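 further: cell viability assay measuring suppression of KINGS-1 cell growth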
Description: SANGER: Inhibition of human KINGS-1 cell growth in a cell viability assay.

MHH-PREB-1 = assay type: functional, cell-based, Homo sapiens;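 further: cell viability assay measuring inhibition of proliferation of human MHH-PREB-1 cells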
Description: SANGER: Inhibition of human MHH-PREB-1 cell growth in a cell viability assay.

CW-2 = assay type: functional, cell-based, Homo sapiens;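 further: growth inhibition of CW-2 cells, read out by a cell viability assay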
Description: SANGER: Inhibition of human CW-2 cell growth in a cell viability assay.

LB2241-RCC = assay type: functional, cell-based, Homo sapiens;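 further: cell viability assay measuring how strongly the cultured human renal carcinoma line is prevented from growing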
OCUB-M = assay type: functional, cell-based; settings: Homo sapiens;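 further: growth inhibition of the cancer cell line, read out through a cell viability assay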
LS-123 = assay type: functional, cell-based, Homo sapiens
Description: SANGER: Inhibition of human LS-123 cell growth in a cell viability assay.

HOP-62 = assay type: functional, cell-based, Homo sapiens;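 further: cell growth inhibition determined with a viability assay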
NTERA-2-cl-D1 = assay type: functional, cell-based, Homo sapiens; settings: ntera-2-cl-d1;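 further: inhibition of cell growth, measured with a cell viability assay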
Description: SANGER: Inhibition of human NTERA-S-cl-D1 cell growth in a cell viability assay.

With `Cc1ccc(NC(=O)c2ccc(CN3CCN(C)CC3)cc2)cc1Nc1nccc(-c2cccnc2)n1` [IMATINIB] the IC50 (NCI-H1355; Homo sapiens, NCI-H1355) was greater than 2 µM, the IC50 (JVM-3; Homo sapiens, JVM-3) was greater than 2 µM and the IC50 (KARPAS-299; Homo sapiens, KARPAS-299) was greater than 2 µM. For the same compound, the IC50 (GCIY; Homo sapiens, GCIY) was greater than 2 µM, the IC50 (HDLM-2; Homo sapiens, HDLM-2) was greater than 2 µM and the IC50 (LB2518-MEL) was greater than 2 µM. It also gave an IC50 (TE-12; Homo sapiens, TE-12) greater than 2 µM, an IC50 (MS-1; Homo sapiens, MS-1) greater than 2 µM and an IC50 (LC-2-ad; Homo sapiens, LC-2-ad) greater than 2 µM. The IC50 (BB65-RCC; Homo sapiens, BB65-RCC) was greater than 2 µM, the IC50 (NCI-H1395; Homo sapiens, NCI-H1395) was greater than 2 µM and the IC50 (A3-KAW; Homo sapiens, A3-KAW) was greater than 2 µM. For the same compound, the IC50 (KNS-81-FD; Homo sapiens, KNS-81-FD) was greater than 2 µM, the IC50 (GB-1; Homo sapiens, GB-1) was greater than 2 µM and the IC50 (NCI-H209; Homo sapiens, NCI-H209) was greater than 2 µM. The IC50 (LU-134-A; Homo sapiens, LU-134-A) was greater than 2 µM, the IC50 (SW 954; Homo sapiens, SW 954) was greater than 2 µM and the IC50 (Calu-6; Homo sapiens, Calu-6) was greater than 2 µM. For the same compound, the IC50 (BB30-HNC; Homo sapiens, BB30-HNC) was greater than 2 µM, the IC50 (NCI-H1299) was greater than 2 µM and the IC50 (8-MG-BA; Homo sapiens, 8-MG-BA) was greater than 2 µM. It also gave an IC50 (SNB-75; Homo sapiens, SNB-75) greater than 2 µM, an IC50 (NCI-H747; Homo sapiens, NCI-H747) greater than 2 µM and an IC50 (KY821; Homo sapiens, KY821) greater than 2 µM. The IC50 (LB1047-RCC; Homo sapiens, LB1047-RCC) was greater than 2 µM, the IC50 (OCI-AML2; Homo sapiens, OCI-AML2) was greater than 2 µM and the IC50 (SK-MEL-2; Homo sapiens, SK-MEL-2) was greater than 2 µM. For the same compound, the IC50 (HT; Homo sapiens, HT) was greater than 2 µM, the IC50 (TE-10; Homo sapiens, TE-10) was greater than 2 µM and the IC50 (no-11; Homo sapiens) was greater than 2 µM. It also gave an IC50 (EW-11; Homo sapiens, EW-11) greater than 2 µM, an IC50 (A4-Fuk; Homo sapiens, A4-Fuk) greater than 2 µM and an IC50 (GT3TKB; Homo sapiens, GT3TKB) greater than 2 µM. For the same compound, the IC50 (OS-RC-2; Homo sapiens, OS-RC-2) was greater than 2 µM, the IC50 (MV4-11; Homo sapiens, MV4-11) was greater than 2 µM and the IC50 (COLO-668; Homo sapiens, COLO-668) was greater than 2 µM. The IC50 (NB6; Homo sapiens, NB6) was greater than 2 µM, the IC50 (MHH-NB-11; Homo sapiens, MHH-NB-11) was greater than 2 µM and the IC50 (MEG-01; Homo sapiens, MEG-01) was 0.0892 µM. The IC50 (KINGS-1; Homo sapiens, KINGS-1) was greater than 2 µM, the IC50 (MHH-PREB-1; Homo sapiens, MHH-PREB-1) was greater than 2 µM and the IC50 (CW-2; Homo sapiens, CW-2) was greater than 2 µM. The IC50 (LB2241-RCC; Homo sapiens, LB2241-RCC) was greater than 2 µM, the IC50 (OCUB-M) was greater than 2 µM and the IC50 (LS-123; Homo sapiens, LS-123) was greater than 2 µM. For the same compound, the IC50 (HOP-62; Homo sapiens, HOP-62) was greater than 2 µM.
`CC(C)C[C@@H](C=O)NC(=O)[C@H](CC(C)C)NC(=O)[C@H](CC(C)C)NC(=O)OCc1ccccc1` [MG-132] (Cbz-Leu-Leu-Leu-aldehyde) was tested, and the IC50 (NCI-H1355; nci-h1355) was 0.686 µM and > 1 µM, the IC50 (JVM-3; jvm-3) was greater than 1 µM and the IC50 (KARPAS-299; karpas-299) was greater than 1 µM. The IC50 (GCIY; gciy) was greater than 1 µM, the IC50 (HDLM-2; hdlm-2) was greater than 1 µM and the IC50 (TE-12; Homo sapiens, TE-12) was greater than 1 µM. For the same compound, the IC50 (TE-12; te-12) was greater than 1 µM, the IC50 (MS-1; Homo sapiens, MS-1) was greater than 1 µM and the IC50 (MS-1; ms-1) was greater than 1 µM. For the same compound, the IC50 (LC-2-ad; Homo sapiens, LC-2-ad) was greater than 1 µM, the IC50 (LC-2-ad; lc-2-ad) was greater than 1 µM and the IC50 (BB65-RCC; bb65-rcc) was 0.568 µM and > 1 µM. It also gave an IC50 (NCI-H1395; Homo sapiens, NCI-H1395) greater than 1 µM, an IC50 (NCI-H1395; nci-h1395) greater than 1 µM and an IC50 (A3-KAW; a3-kaw) greater than 1 µM. For the same compound, the IC50 (KNS-81-FD; kns-81-fd) was 0.303 µM and > 1 µM, the IC50 (GB-1; gb-1) was 0.721 µM and > 1 µM and the IC50 (NCI-H209; nci-h209) was greater than 1 µM. For the same compound, the IC50 (LU-134-A; Homo sapiens, LU-134-A) was greater than 1 µM, the IC50 (LU-134-A; lu-134-a) was greater than 1 µM and the IC50 (SW 954; Homo sapiens, SW 954) was greater than 1 µM. It also gave an IC50 (SW 954; sw 954) greater than 1 µM, an IC50 (Calu-6; Homo sapiens, Calu-6) greater than 1 µM and an IC50 (Calu-6; calu-6) greater than 1 µM. The IC50 (BB30-HNC; bb30-hnc) was greater than 1 µM, the IC50 (NCI-H1299) was greater than 1 µM and the IC50 (8-MG-BA; 8-mg-ba) was 0.398 µM and > 1 µM. It also gave an IC50 (SNB-75; snb-75) greater than 1 µM, an IC50 (NCI-H747; Homo sapiens, NCI-H747) of 0.371 µM and an IC50 (NCI-H747; nci-h747) of 0.713 µM. For the same compound, the IC50 (KY821; ky821) was greater than 1 µM, the IC50 (LB1047-RCC; Homo sapiens, LB1047-RCC) was greater than 1 µM and the IC50 (LB1047-RCC; lb1047-rcc) was greater than 1 µM. It also gave an IC50 (OCI-AML2; oci-aml2) greater than 1 µM, an IC50 (SK-MEL-2; sk-mel-2) greater than 1 µM and an IC50 (HT; ht) greater than 1 µM. For the same compound, the IC50 (NTERA-2-cl-D1) was 0.0577 µM and 0.426 µM, the IC50 (TE-10; te-10) was 0.964 µM and > 1 µM and the IC50 (no-11) was greater than 1 µM. For the same compound, the IC50 (EW-11; ew-11) was greater than 1 µM, the IC50 (A4-Fuk; a4-fuk) was greater than 1 µM and the IC50 (GT3TKB; gt3tkb) was greater than 1 µM. The IC50 (OS-RC-2; os-rc-2) was 0.48 µM and > 1 µM, the IC50 (MV4-11; mv-4-11) was greater than 1 µM and the IC50 (COLO-668; Homo sapiens, COLO-668) was greater than 1 µM. It also gave an IC50 (COLO-668; colo-668) greater than 1 µM, an IC50 (NB6; nb6) greater than 1 µM and an IC50 (MHH-NB-11; Homo sapiens, MHH-NB-11) greater than 1 µM. The IC50 (MHH-NB-11; mhh-nb-11) was greater than 1 µM, the IC50 (MEG-01; meg-01) was greater than 1 µM and the IC50 (KINGS-1; kings-1) was 0.148 µM and 0.628 µM. For the same compound, the IC50 (MHH-PREB-1; mhh-preb-1) was greater than 1 µM, the IC50 (CW-2; cw-2) was greater than 1 µM and the IC50 (LB2241-RCC; lb2241-rcc) was 0.142 µM and 0.871 µM. For the same compound, the IC50 (LS-123; ls-123) was greater than 1 µM and the IC50 (HOP-62; hop-62) was 0.109 µM and > 1 µM.
